The source of these data is patent EP4778922A1, “BICYCLIC COMPOUND, AND PREPARATION METHOD THEREFOR AND PHARMACEUTICAL USE THEREOF” (Shanghai Jeyou Pharmaceutical Co., Ltd., priority 2023, dated 2025).

Tested on in one data set: not listed separately
As to the kind of experiment: Mouse pharmacokinetic test. The note with it: in vivo, 30 mg/kg, PO-30mpk. The class given is in vivo, ICR mice. On the procedure:
Formulation preparation: The dosing solutions were prepared on the day of administration.
Six healthy male naive ICR mice weighing 25-30 g were selected and divided into two groups (intravenous and oral groups), with three mice in each group, and administered a single dose. […] Feeding was resumed 4 h after administration. Timing was initiated following intravenous and oral administration. […] The collected whole blood was briefly vortexed twice for mixing, placed on wet ice, and centrifuged at 4°C and 8000 rpm for 5 min within 1 h. The supernatant plasma was collected and stored at -80°C until processing and analysis. Table 3: Pharmacokinetics in mice
The AUC(0-inf) is total exposure, with the tail of the curve extrapolated. Lower therefore signals less exposure. What is called Cmax is the maximum level reached in the sampled fluid or tissue. As usually defined, the half-life is the time needed for the level to fall by half in the phase considered. A lower half-life goes with rapid decline. As for `CC(C)(c1ccc(-c2cccc(OCc3ccnc(P(C)(C)=O)n3)c2)cc1)c1cc(Cl)c(OCCCl)c(C#N)c1` [Compound 6], the AUC(0-inf) amounted to 447 µg·h/mL, the Cmax came to 62800 ng/mL and the half-life was 2.2 h.

In the case of `CC(C)(c1ccc(N2CCC(Oc3ccnc(P(C)(C)=O)n3)CC2)cc1)c1cc(Cl)c(OCCCl)c(C#N)c1` [Compound 10], the AUC(0-inf) worked out at 316 µg·h/mL, the concentration peaked (Cmax) at 31000 ng/mL and the half-life was 5.4 h.

Still in this data set, the particulars now being: in vivo, 30 mg/kg, PO-30mpk, read-out: Tmax.
As usually defined, the Tmax is the time at which the peak concentration occurs. Regarding `CC(C)(c1ccc(-c2cccc(OCc3ccnc(P(C)(C)=O)n3)c2)cc1)c1cc(Cl)c(OCCCl)c(C#N)c1` [Compound 6], the Tmax was determined as 2.7 h. On the same count and under the same terms, to `CC(C)(c1ccc(N2CCC(Oc3ccnc(P(C)(C)=O)n3)CC2)cc1)c1cc(Cl)c(OCCCl)c(C#N)c1` [Compound 10] belongs 3.3 h.

The same data set, now with this note: plasma, 30 mg/kg, PO-30mpk.
Turning to `CC(C)(c1ccc(-c2ccc(OCc3ccnc(P(C)(C)=O)n3)cc2)cc1)c1cnc2c(cnn2CCCl)c1` [Compound 42], the total exposure AUC(0-inf) turned out to be 422 µg·h/mL, the Cmax stood at 34300 ng/mL and the half-life was 4.42 h.

Still in this data set, the particulars now being: plasma, 30 mg/kg, PO-30mpk, read-out: Tmax.
For the compound `CC(C)(c1ccc(-c2ccc(OCc3ccnc(P(C)(C)=O)n3)cc2)cc1)c1cnc2c(cnn2CCCl)c1` [Compound 42], the Tmax stood at 3.33 h.

The same data set, now with this note: plasma, po, 30 mg/kg, PO-30mpk.
Regarding `CC(C)(c1ccc(-c2ccc(/C=C/c3ccnc(P(C)(C)=O)n3)cc2)cc1)c1cc(Cl)c(OCCCl)c(C#N)c1` [Compound 228], the AUC(0-inf) is 242 µg·h/mL, the highest level (Cmax) was 14500 ng/mL and the half-life was 6 h.

The data set is the same for the next values; noted with them: plasma, po, 30 mg/kg, PO-30mpk, read-out: Tmax.
As to `CC(C)(c1ccc(-c2ccc(/C=C/c3ccnc(P(C)(C)=O)n3)cc2)cc1)c1cc(Cl)c(OCCCl)c(C#N)c1` [Compound 228], the time to peak (Tmax) was 4 h.

Another data set has as its system 22RV1 cells. The data set can be described thus: Cell proliferation inhibition assay in 22RV1 cells (CellTiter-Glo, 7 days). The class given is cell-based, human. The note with it: Homo sapiens, 22Rv1, 168 h. As for the experimental part: • 1. The human prostate cancer cell lines 22RV1 and LNCaP were purchased from ATCC. […] The cell concentration was adjusted to an appropriate concentration (determined based on the results of cell density optimization experiments), and the cells were seeded into a 96-well plate. A 100 µL cell suspension was added, resulting in 3000 cells per well. […] On the second day, for 22Rv1 cells, test compounds at different concentrations were added, and the cells were incubated at 37°C in a 5% CO2 incubator for 7 days; for LNCaP cells, test compounds at different concentrations were added first, and after 1 hour of treatment, 0.2 nM DHT was added. The cells were then incubated at 37°C in a 5% CO2 incubator for 7 days. • 4. After the incubation period, a volume of CellTiter-Glo detection reagent equal to the volume of the culture medium was added to each well. The plate was shaken and mixed thoroughly for 5 minutes, then incubated at room temperature for 10 minutes. Readings were taken using a PerkinElmer EnVision microplate reader. • 5.
The IC50 curve was fitted and the IC50 value was calculated using the software GraphPad Prism 8 with the calculation formula XY-analysis/Nonlinear regression (curve fit)/Dose response-Inhibition/log (inhibitor) vs. response-Variable slope (four parameters).
Broadly, the IC50 is the concentration at which inhibition is half-maximal. Low readings indicate greater potency, high ones weaker potency. For `CC(C)(c1ccc(-c2ccc(OCc3ccnc(N4CC(S(=N)(=O)C5CC5)C4)n3)cc2)cc1)c1cc(Cl)c(OCCCl)c(C#N)c1` (racemic) [Compound 295], half-maximal inhibition (IC50) was put at 0.33 µM. This counts as sub-micromolar. Same read-out and setting: the value for `CC(C)(c1ccc(-c2cnc(OCc3ccnc(N4CC(S(C)(=N)=O)C4)n3)cn2)cc1)c1cc(Cl)c(OCCCl)c(C#N)c1` (racemic) [Compound 323] was 0.57 µM; that for `CC(C)(c1ccc(-c2cnc(OCc3ccnc(N4CC(S(=N)(=O)C5CC5)C4)n3)cn2)cc1)c1cc(Cl)c(OCCCl)c(C#N)c1` (racemic) [Compound 350] was 0.46 µM.

Compound `CC(C)(c1ccc(-c2ccc(OCc3ccnc(N4CC5(C4)CS(=O)(=O)C5)n3)cc2)cc1)c1cc(Cl)c(OCCCl)c(C#N)c1` [Compound 24] displayed a half-maximal inhibitory concentration (IC50) of 1.03 µM.

The same data set, now with this note: Homo sapiens, 168 h.
Take `CC(C)(c1ccc(-c2ccc(OCc3ccnc(S(C)(=O)=O)n3)cc2)cc1)c1cc(Cl)c(OCCCl)c(C#N)c1` [Compound 1]: half-maximal inhibition (IC50) was put at 1.07 µM. Same read-out and setting: the value for `CC(C)(c1ccc(-c2cccc(OCc3ccnc(S(C)(=O)=O)n3)c2)cc1)c1cc(Cl)c(OCCCl)c(C#N)c1` [Compound 4] was 1.38 µM; that for `CC(C)(c1ccc(-c2ccc(OCc3ccnc(P(C)(C)=O)n3)cn2)cc1)c1cc(Cl)c(OCCCl)c(C#N)c1` [Compound 15] was 1.35 µM; that for `CC(C)(c1ccc(-c2ccc(OCc3ccnc(N=S4(=O)CCCC4)n3)nc2)cc1)c1cc(Cl)c(OCCCl)c(C#N)c1` [Compound 18] was 1.46 µM. The compound `CC(C)(c1ccc(-c2ccc(OCc3ccnc(N=S4(=O)CCOCC4)n3)nc2)cc1)c1cc(Cl)c(OCCCl)c(C#N)c1` [Compound 19] returned a concentration for half-maximal inhibition (IC50) of 0.86 µM. Still for that read-out and setting: to `CC(C)(c1ccc(-c2ccc(C#Cc3ccnc(N=S4(=O)CCCC4)n3)cc2)cc1)c1cc(Cl)c(OCCCl)c(C#N)c1` [Compound 21] belongs 0.34 µM; to `CC(C)(c1ccc(-c2cnc(OCc3ccnc(N4CC5(COC5)C4)n3)nc2)cc1)c1cc(Cl)c(OCCCl)c(C#N)c1` [Compound 35], 0.84 µM. Same read-out and setting: the value for `CC(C)(c1ccc(-c2cnc(OCc3ccnc(N=S4(=O)CCCC4)n3)nc2)cc1)c1cc(Cl)c(OCCCl)c(C#N)c1` [Compound 36] was 1.35 µM; that for `CC(C)(c1ccc(-c2ccc(OCc3ccnc(N=S4(=O)CCOCC4)n3)cc2)cc1)c1cc(Cl)c(OCCCl)c(C#N)c1` [Compound 43] was 0.3 µM; that for `CC(C)(c1ccc(-c2ccc(OCc3ccnc(N4CC5(COC5)C4)n3)cc2)cc1)c1cnc2c(cnn2CCCl)c1` [Compound 45] was 0.99 µM. In turn, `CC(C)(c1ccc(-c2ccc(OCc3ccnc(N4CC(O)C4)n3)cc2)cc1)c1cc(Cl)c(OCCCl)c(C#N)c1` [Compound 54] came in with an IC50 of 1.42 µM. Still for that read-out and setting: the value for `CC(C)(c1ccc(-c2ccc(OCC3CCOCC3)cc2)cc1)c1cc(Cl)c(OCCCl)c(C#N)c1` [Compound 74] was 0.29 µM; that for `CC(C)(c1ccc(-c2ccc(OC3CCN(c4ccnc(N5CC6(COC6)C5)n4)CC3)cc2)cc1)c1cc(Cl)c(OCCCl)c(C#N)c1` [Compound 77] was 1.47 µM. `CC(C)(c1ccc(-c2ccc(OC3CCN(c4ccnc(N5CC6(C5)CS(=O)(=O)C6)n4)CC3)cc2)cc1)c1cc(Cl)c(OCCCl)c(C#N)c1` [Compound 78] yielded an IC50 of 0.71 µM. This IC50 is about 2.1-fold lower than that of the compound before. As for `CC(C)(c1ccc(-c2ccc(OCC3CC(CN4CC5(C4)CS(=O)(=O)C5)C3)cc2)cc1)c1cc(Cl)c(OCCCl)c(C#N)c1` (centres unmarked) [Compound 80], the IC50 was found to be 0.11 µM. Still for that read-out and setting: to `C[S+]([O-])c1nccc(COc2ccc(-c3ccc(C(C)(C)c4cc(Cl)c(OCCCl)c(C#N)c4)cc3)cc2)n1` (centres unmarked) [Compound 81] belongs 0.86 µM; to `CC(C)(c1ccc(-c2ccc(OCc3ccnc(N4CC5(C4)CS(=O)(=O)C5)n3)cn2)cc1)c1cc(Cl)c(OCCCl)c(C#N)c1` [Compound 84], 1.05 µM.

`CC(C)(c1ccc(-c2ccc(OCc3ccnc(N=S4(=O)CCNCC4)n3)cn2)cc1)c1cc(Cl)c(OCCCl)c(C#N)c1` [Compound 86] displayed an IC50 of 0.63 µM. This IC50 is about 1.7-fold lower than that of the compound before. The compound `CC1(NS(C)(=O)=O)CN(c2nccc(COc3ccc(-c4ccc(C(C)(C)c5cc(Cl)c(OCCCl)c(C#N)c5)cc4)cc3)n2)C1` [Compound 90] displayed an IC50 of 1.32 µM.

The compound `CN(C1CN(c2nccc(COc3ccc(-c4ccc(C(C)(C)c5cc(Cl)c(OCCCl)c(C#N)c5)cc4)cc3)n2)C1)S(C)(=O)=O` [Compound 93] yielded an IC50 of 1.01 µM.

In turn, `CC(C)(c1ccc(-c2ccc(OCc3ccnc(N4CC5(CNC5)C4)n3)cc2)cc1)c1cc(Cl)c(OCCCl)c(C#N)c1` [Compound 104] came in with an IC50 of 0.92 µM. Still for that read-out and setting: the value for `CC(C)(c1ccc(-c2ccc(OCc3ccnc(N4CC5(C4)CN(S(C)(=O)=O)C5)n3)cc2)cc1)c1cc(Cl)c(OCCCl)c(C#N)c1` [Compound 105] was 0.3 µM. For `CC(C)(c1ccc(-c2ccc(OCC3CC4(C3)CS(=O)(=O)C4)cc2)cc1)c1cc(Cl)c(OCCCl)c(C#N)c1` [Compound 106], the IC50 stood at 0.19 µM. Against the preceding compound, the IC50 is about 1.6-fold lower. Still for that read-out and setting: to `CC(C)(c1ccc(-c2ccc(OCc3ccnc(N4CC5(CC(S(C)(=O)=O)C5)C4)n3)cc2)cc1)c1cc(Cl)c(OCCCl)c(C#N)c1` [Compound 121] belongs 0.19 µM. For `CC(C)(c1ccc(-c2ccc(OCc3ccnc(N4CC5(CC(=O)C5)C4)n3)cc2)cc1)c1cc(Cl)c(OCCCl)c(C#N)c1` [Compound 122], inhibition was half-maximal at 1.28 µM (IC50). Still for that read-out and setting: to `CC(C)(c1ccc(-c2ccc(OCc3ccnc(N=S4(=O)CCN(CC(F)(F)F)CC4)n3)cn2)cc1)c1cc(Cl)c(OCCCl)c(C#N)c1` [Compound 139] belongs 0.65 µM; to `CC(C)(c1ccc(-c2ccc(OC3CC4CCC(C3)N4c3ccnc(P(C)(C)=O)n3)nc2)cc1)c1cc(Cl)c(OCCCl)c(C#N)c1` (centres unmarked) [Compound 140], 0.53 µM; to `CC(C)(c1ccc(-c2ccc(OC3CCN(c4ccnc(N5CC(S(C)(=O)=O)C5)n4)CC3)cc2)cc1)c1cc(Cl)c(OCCCl)c(C#N)c1` [Compound 143], 0.9 µM.

Turning to `CC(C)(c1ccc(-c2ccc(OCc3ccnc(C4CNC4)n3)cc2)cc1)c1cc(Cl)c(OCCCl)c(C#N)c1` [Compound 144], the IC50 was 0.74 µM.

`CC(C)(c1ccc(-c2ccc(OC3CCN(c4ccnc(N5CC(S(C)(=O)=O)C5)n4)CC3)nc2)cc1)c1cc(Cl)c(OCCCl)c(C#N)c1` [Compound 148] showed an IC50 of 0.77 µM.
